The supplement of paper PMC10883282

Legend:
Assay in all cases: relative viability vs DMSO control (72 h) (fraction); higher = more viable cells
A204 = system: A204
How it was run: (§1)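 Plates held 72 h at 37 °C and 5% CO2 contained sarcoma cell lines seeded in 384-well format to reach 80–90% confluence, plus 2.5 µl of serially diluted compound added after 24 h. Source plate concentrations ran from 10 mM to 0.0002 mM, with 0.1% DMSO as vehicle and a 5 µM positive control. Percent growth from ATPLite readings, averaged over up to triplicate wells, gave relative viability. Values were rescaled with 1 as full and 0 as none.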

MES-SA = system: MES-SA
How it was run: as §1

SK-ES-1 = system: SK-ES-1
How it was run: as §1

SW982 = system: SW982
How it was run: as §1

VA-ES-BJ = system: VA-ES-BJ
How it was run: as §1

CC#CC(=O)N1CCC[C@H]1c1nc(-c2ccc(C(=O)Nc3ccccn3)cc2)c2c(N)nccn12 [Acalabrutinib]
relative viability
Conditions	A204	MES-SA	SK-ES-1	SW982	VA-ES-BJ
0.00017 µM	1.07	0.914	0.978	1.048	1.01
0.00051 µM	1.07	0.905	0.989	1.037	1.01
0.00152 µM	1.06	0.937	1.04	1.05	1.03
0.00457 µM	1.09	0.914	1.03	1.05	1.04
0.01372 µM	1.1	0.908	0.996	1.05	1.01
0.04115 µM	1.09	0.909	0.998	1.034	1.01
0.1235 µM	1.07	0.912	0.999	1.02	1
0.3704 µM	1.05	0.926	1.02	1.02	1.05
1.111 µM	1.05	0.909	1.012	1.02	1.08
3.333 µM	1.02	0.914	1.02	1.01	1.07
10 µM	0.872	0.907	0.983	0.955	1.05

N#CC1(c2ccc(NC(=O)c3cccnc3NCc3ccncc3)cc2)CCCC1 [Apatinib]
relative viability
Conditions	A204	MES-SA	SK-ES-1	SW982	VA-ES-BJ
0.00017 µM	1.03	0.978	0.968	0.96	1.04
0.00051 µM	1.03	0.958	0.986	0.978	1.08
0.00152 µM	1.05	0.946	0.95	0.994	1.05
0.00457 µM	1.07	0.9268	0.964	0.9695	1.08
0.01372 µM	1.02	0.929	1	0.99	1.06
0.04115 µM	1.01	0.939	0.991	1.009	1.07
0.1235 µM	0.992	0.928	0.999	1	1.067
0.3704 µM	0.811	0.938	1.01	0.958	1.07
1.111 µM	0.482	0.885	0.978	0.979	1.11
3.333 µM	0.362	0.875	0.936	0.975	1.14
10 µM	0.342	0.773	0.845	0.999	1.17

O=C(Nc1ccc(OC(F)(F)Cl)cc1)c1cnc(N2CC[C@@H](O)C2)c(-c2cc[nH]n2)c1 [Asciminib]
relative viability
Conditions	A204	MES-SA	SK-ES-1	SW982	VA-ES-BJ
0.00017 µM	1.02	0.88	0.975	0.974	0.998
0.00051 µM	1.04	0.902	0.999	0.978	0.982
0.00152 µM	1.05	0.864	1	1	0.995
0.00457 µM	1.04	0.898	1	0.975	0.99
0.01372 µM	1.04	0.9132	0.992	1.01	0.999
0.04115 µM	1.05	0.9229	1.01	1.01	1.02
0.1235 µM	1.06	0.914	1.01	1.01	1.02
0.3704 µM	1.06	0.951	1.02	1.04	1.03
1.111 µM	1.04	0.908	0.995	1.05	1.02
3.333 µM	0.799	0.829	0.906	1.01	0.9997
10 µM	0.449	0.577	0.814	0.858	0.9486

CNC(=O)c1ccccc1Sc1ccc2c(/C=C/c3ccccn3)n[nH]c2c1 [Axitinib]
relative viability
Conditions	A204	MES-SA	SK-ES-1	SW982	VA-ES-BJ
0.00017 µM	1.04	0.995	0.9896	0.998	1.11
0.00051 µM	1.07	0.9681	1.06	0.997	1.097
0.00152 µM	1.03	0.978	1.03	1	1.11
0.00457 µM	0.942	0.977	1.02	1.02	1.12
0.01372 µM	0.77	0.967	1.01	0.991	1.09
0.04115 µM	0.484	0.949	0.969	1.015	1.08
0.1235 µM	0.405	0.951	0.943	0.9984	1.05
0.3704 µM	0.359	0.785	0.829	0.96	0.9867
1.111 µM	0.289	0.825	0.837	0.922	0.977
3.333 µM	0.159	0.257	0.499	0.409	0.61
10 µM	0.0338	0.056	0.0154	0.0993	0.263

Cc1cc2c(F)c(Oc3ncnn4cc(OC[C@@H](C)O)c(C)c34)ccc2[nH]1 [Brivanib]
relative viability
Conditions	A204	MES-SA	SK-ES-1	SW982	VA-ES-BJ
0.00017 µM	1.05	0.897	1.04	1.03	1.01
0.00051 µM	1.035	0.908	1.04	1.03	1.03
0.00152 µM	1.02	0.8964	1.07	1.05	1
0.00457 µM	1.07	0.892	1.07	1.07	0.996
0.01372 µM	1.06	0.919	1.02	1.05	0.96
0.04115 µM	1.03	0.917	1.05	1.05	1
0.1235 µM	1.01	0.921	1.04	1.035	1.011
0.3704 µM	1.01	0.935	0.997	1.06	1.03
1.111 µM	0.987	0.934	1.022	1.034	1.06
3.333 µM	0.95	0.926	1.06	1.07	1.07
10 µM	0.642	0.636	0.952	1.06	1.07

CO[C@H]1C[C@@H]2CC[C@@H](C)[C@@](O)(O2)C(=O)C(=O)N2CCCC[C@H]2C(=O)O[C@H]([C@H](C)C[C@@H]2CC[C@@H](OCCO)[C@H](OC)C2)CC(=O)[C@H](C)/C=C(\C)[C@@H](O)[C@@H](OC)C(=O)[C@H](C)C[C@H](C)/C=C/C=C/C=C/1C [Certican]
relative viability
Conditions	A204	MES-SA	SK-ES-1	SW982	VA-ES-BJ
0.00017 µM	0.919	0.862	1	1	0.934
0.00051 µM	0.793	0.803	1.01	0.882	0.855
0.00152 µM	0.657	0.608	0.983	0.79	0.643
0.00457 µM	0.619	0.489	0.774	0.756	0.604
0.01372 µM	0.591	0.422	0.694	0.728	0.529
0.04115 µM	0.517	0.398	0.648	0.68	0.494
0.1235 µM	0.498	0.378	0.592	0.679	0.482
0.3704 µM	0.485	0.373	0.55	0.645	0.478
1.111 µM	0.487	0.377	0.552	0.618	0.468
3.333 µM	0.45	0.358	0.533	0.599	0.47
10 µM	0.43	0.332	0.499	0.604	0.46

CC1(COc2ccc3c(c2)ncn3-c2ccc3cccc(N4CCC(N)CC4)c3n2)COC1 [Crenolanib]
relative viability
Conditions	A204	MES-SA	SK-ES-1	SW982	VA-ES-BJ
0.00017 µM	1.085	0.919	0.997	0.937	1.03
0.00051 µM	1.07	0.919	0.993	0.9575	1.02
0.00152 µM	1.08	0.9274	1.01	0.947	1.04
0.00457 µM	1.05	0.971	1.05	0.974	1.04
0.01372 µM	1.01	0.9531	1.02	0.965	1.05
0.04115 µM	0.819	0.94	1.02	0.971	1.08
0.1235 µM	0.594	0.98	1.014	0.969	1.09
0.3704 µM	0.457	1.05	0.949	0.952	1.11
1.111 µM	0.403	1.03	0.675	0.679	0.961
3.333 µM	0.326	0.475	0.188	0.352	0.466
10 µM	0.016	0.0499	0.0214	0.0115	0.108

CC(C)(C)c1nc(-c2cccc(NS(=O)(=O)c3c(F)cccc3F)c2F)c(-c2ccnc(N)n2)s1 [Dabrafenib]
relative viability
Conditions	A204	MES-SA	SK-ES-1	SW982	VA-ES-BJ
0.00017 µM	1	0.944	1.01	1	1.02
0.00051 µM	1.04	0.921	1.04	0.988	1.02
0.00152 µM	1.04	0.908	1	0.974	1.06
0.00457 µM	1.04	0.905	1.02	0.886	1.05
0.01372 µM	1.05	0.909	0.987	0.85	1.07
0.04115 µM	0.978	0.883	0.927	0.779	1.02
0.1235 µM	0.938	0.733	0.794	0.701	1.01
0.3704 µM	0.843	0.53	0.524	0.469	0.82
1.111 µM	0.76	0.504	0.368	0.384	0.646
3.333 µM	0.69	0.744	0.41	0.369	0.654
10 µM	0.614	0.745	–	0.356	0.5821

CCc1cnn2c(NCc3ccc[n+]([O-])c3)cc(N3CCCC[C@H]3CCO)nc12 [Dinaciclib]
relative viability
Conditions	A204	MES-SA	SK-ES-1	SW982	VA-ES-BJ
0.00017 µM	0.998	0.994	0.939	0.9568	0.994
0.00051 µM	1.02	1.04	1	0.98	1.011
0.00152 µM	0.9831	0.957	0.939	0.984	1.03
0.00457 µM	0.913	0.912	0.79	0.962	0.94
0.01372 µM	0.482	0.383	0.411	0.566	0.269
0.04115 µM	0.247	0.0374	0.0163	0.223	0.222
0.1235 µM	0.235	0.0354	0.0154	0.239	0.227
0.3704 µM	0.199	0.0357	0.00863	0.269	0.255
1.111 µM	0.187	0.0288	0.00557	0.267	0.245
3.333 µM	0.179	0.0272	0.000967	0.25	0.253
10 µM	0.18	0.0262	-0.000867	0.227	0.247
